Reference: patent publication US20240343699A1, “DERIVATIVES OF SUBSTITUTED MORPHOLINES AND USES THEREOF” (Supernus Pharmaceuticals, Inc., priority 2023, published 2024)
“And” between values parts separate entries of the source, which are not always exact repeats. Equal entries are not always repeated. Where two headings read alike, the source gives them in different places.

What was measured:
[1] = Protein binding in CD-1 mouse plasma (equilibrium dialysis); settings: dialysis conditions; no binding reported
[2] = Cellular and nuclear receptor functional assays; format: cell-based; settings: human recombinant (CHO cells); for Kb: apparent dissociation constant, modified Cheng Prusoff equation, read-out: kB, 5-HT2B(h) (antagonist effect); for IC50: serotonin (30 nM), IP1, HTRF, read-out: IC50, 5-HT2B(h) (antagonist effect)
Procedure: A study was conducted to test 5 compounds in cellular and nuclear receptor functional and enzyme and uptake assays.
The results are expressed as a percent of control agonist response or inverse agonist response and as a percent inhibition of control agonist response
The EC50 values (concentration producing a half-maximal response) and IC50 values (concentration causing a half-maximal inhibition of the control agonist response) were determined by non-linear regression analysis of the concentration-response curves generated with mean replicate values using Hill equation curve fitting […]
where Y=response, A=left asymptote of the curve, D=right asymptote of the curve, C=compound concentration, and C50=EC50 or IC50, and nH=slope factor. This analysis was performed using software developed at Cerep (Hill software) and validated by comparison with data generated by the commercial software SigmaPlot® 4.0 for Windows® (© 1997 by SPSS Inc.).
For the antagonists, the apparent dissociation constants (KB) were calculated using the modified Cheng Prusoff equation where A=concentration of reference agonist in the assay, and EC50A=EC50 value of the reference agonist.
In Vitro Pharmacology. Results showing an inhibition (or stimulation for assays run in basal conditions) higher than 50% were considered to represent significant effects of the test compounds. Results showing an inhibition (or stimulation) between 25% and 50% are indicative of weak to moderate effects. Results showing an inhibition (or stimulation) lower than 25% were not considered significant and mostly attributable to variability of the signal around the control level.

[3] = Metabolic stability in human liver S9; format: in vitro ADME; settings: human liver S9, 1 μM; for half-life at 1 μM / microsomal CLint at 1 μM: pH 7.2; for microsomal CLint at 1 μM: read-out: CLint(LS9)
Procedure: (§1) Incubation Buffer (PBK): 50 mM potassium phosphate buffer was prepared from 1 M potassium phosphate buffer, pH 7.2. […] The dilution of […] was prepared by 90% methanol/10% DMSO, then 10 μM working solutions were prepared by diluting the 0.1 mM intermediates with 50 mM PBK. […] Prior to use, the stock solutions were brought to room temperature and thoroughly mixed. […] Cofactors Solutions: the mixture of cofactors solution was made at 10 mM of NADPH and 10 mM of UDPGA in PBK buffer.
(§2) The incubation was carried out in 96-well plates. The liver S9 working solutions were added to 96-well plates (80 μL/well) in duplicate. […] Reaction was initiated by adding cofactor mixture 10 μL/well. The plates were incubated at 37° C. in a water bath with shaking. […] The final organic solvent content in the incubation was ≤1%.
(§3) At specified time points, i.e., 5, 10, 20, 30 and 60 minutes, NCF60 (without adding NADPH (Nicotinamide-adenine dinucleotide phosphate, reduced form) and UDPGA (Uridine 5′-diphosphoglucuronic acid trisodium salt) replaced with PBK buffer reaction was stopped by adding three volumes of stop solution. The time zero (To) samples were prepared by adding three volumes of stop solution to liver S9 samples, followed by addition of test article or control, and cofactor mixture solution 10 μL/well.
(§4) Subsequently, 100 μL of supernatant.
(§5) Positive controls: 7-ethoxycoumarin and 7-hydroxycoumarin.

[4] = target: T1, hNav1.5 (Homo sapiens, UniProt Q14524); assay: Nav1.5 human sodium ion channel cell based automated patch clamp assay (QPatch HT); settings: Antagonist
T1 construct: CYL6004QP2DR
Procedure: Electrophysiological assays were conducted to profile five compounds for activities on the ion channel target using the QPatch HT electrophysiological platform.
CYL6004QP2DR Nav1.5 Human Sodium Ion Channel Cell Based Automated Patch Clamp Assay. Cells were held at −120 mV for 100 ms, stepped to −130 mV for 100 ms, and stepped back to −120 mV for 100 ms to measure the leak current. Na channels exist in a) resting or closed state at −120 mV, b) a transient open state that inactivates to c) inactivated state at −10 mV. Na current inhibition within 1-2 ms of channel opening at −10 mV is open channel inhibition (pulse 1). […] Pulse 1 and 2 are used to investigate drug binding to the open state and inactivated state of the Na channels, respectively. Each concentration of compound was applied for 5 minutes.
Current amplitudes more than 200 pA at the control stage were analyzed. The amplitude of the current was calculated by measuring the difference between the peak inward current on stepping to −10 mV (i.e. peak of the current) and remaining current at the end of the step. The current was assessed in vehicle control conditions and then at the end of each five (5) minute compound application.

[5] = Metabolic stability in dog liver S9; format: in vitro ADME, Beagle dog; settings: dog liver S9, 1 μM; for half-life at 1 μM / microsomal CLint at 1 μM: Beagle, pH 7.2; for microsomal CLint at 1 μM: read-out: CLint(LS9)
Procedure: as §1, §2, §3, §4, §5

[6] = Tissue binding in CD-1 mouse brain homogenate (equilibrium dialysis); settings: for stability in mouse brain homogenate: dialysis conditions
[7] = Pulse 1 (open state), read-out: Estimated IC50 (Pulse 1)
[8] = Pulse 2 (inactivated state), read-out: Estimated IC50 (Pulse 2)
[9] = mouse brain homogenate, 2 μM, 4 hr dialysis (COMPOUND A 1 hr)

T1 sequence (Q14524 whole entry): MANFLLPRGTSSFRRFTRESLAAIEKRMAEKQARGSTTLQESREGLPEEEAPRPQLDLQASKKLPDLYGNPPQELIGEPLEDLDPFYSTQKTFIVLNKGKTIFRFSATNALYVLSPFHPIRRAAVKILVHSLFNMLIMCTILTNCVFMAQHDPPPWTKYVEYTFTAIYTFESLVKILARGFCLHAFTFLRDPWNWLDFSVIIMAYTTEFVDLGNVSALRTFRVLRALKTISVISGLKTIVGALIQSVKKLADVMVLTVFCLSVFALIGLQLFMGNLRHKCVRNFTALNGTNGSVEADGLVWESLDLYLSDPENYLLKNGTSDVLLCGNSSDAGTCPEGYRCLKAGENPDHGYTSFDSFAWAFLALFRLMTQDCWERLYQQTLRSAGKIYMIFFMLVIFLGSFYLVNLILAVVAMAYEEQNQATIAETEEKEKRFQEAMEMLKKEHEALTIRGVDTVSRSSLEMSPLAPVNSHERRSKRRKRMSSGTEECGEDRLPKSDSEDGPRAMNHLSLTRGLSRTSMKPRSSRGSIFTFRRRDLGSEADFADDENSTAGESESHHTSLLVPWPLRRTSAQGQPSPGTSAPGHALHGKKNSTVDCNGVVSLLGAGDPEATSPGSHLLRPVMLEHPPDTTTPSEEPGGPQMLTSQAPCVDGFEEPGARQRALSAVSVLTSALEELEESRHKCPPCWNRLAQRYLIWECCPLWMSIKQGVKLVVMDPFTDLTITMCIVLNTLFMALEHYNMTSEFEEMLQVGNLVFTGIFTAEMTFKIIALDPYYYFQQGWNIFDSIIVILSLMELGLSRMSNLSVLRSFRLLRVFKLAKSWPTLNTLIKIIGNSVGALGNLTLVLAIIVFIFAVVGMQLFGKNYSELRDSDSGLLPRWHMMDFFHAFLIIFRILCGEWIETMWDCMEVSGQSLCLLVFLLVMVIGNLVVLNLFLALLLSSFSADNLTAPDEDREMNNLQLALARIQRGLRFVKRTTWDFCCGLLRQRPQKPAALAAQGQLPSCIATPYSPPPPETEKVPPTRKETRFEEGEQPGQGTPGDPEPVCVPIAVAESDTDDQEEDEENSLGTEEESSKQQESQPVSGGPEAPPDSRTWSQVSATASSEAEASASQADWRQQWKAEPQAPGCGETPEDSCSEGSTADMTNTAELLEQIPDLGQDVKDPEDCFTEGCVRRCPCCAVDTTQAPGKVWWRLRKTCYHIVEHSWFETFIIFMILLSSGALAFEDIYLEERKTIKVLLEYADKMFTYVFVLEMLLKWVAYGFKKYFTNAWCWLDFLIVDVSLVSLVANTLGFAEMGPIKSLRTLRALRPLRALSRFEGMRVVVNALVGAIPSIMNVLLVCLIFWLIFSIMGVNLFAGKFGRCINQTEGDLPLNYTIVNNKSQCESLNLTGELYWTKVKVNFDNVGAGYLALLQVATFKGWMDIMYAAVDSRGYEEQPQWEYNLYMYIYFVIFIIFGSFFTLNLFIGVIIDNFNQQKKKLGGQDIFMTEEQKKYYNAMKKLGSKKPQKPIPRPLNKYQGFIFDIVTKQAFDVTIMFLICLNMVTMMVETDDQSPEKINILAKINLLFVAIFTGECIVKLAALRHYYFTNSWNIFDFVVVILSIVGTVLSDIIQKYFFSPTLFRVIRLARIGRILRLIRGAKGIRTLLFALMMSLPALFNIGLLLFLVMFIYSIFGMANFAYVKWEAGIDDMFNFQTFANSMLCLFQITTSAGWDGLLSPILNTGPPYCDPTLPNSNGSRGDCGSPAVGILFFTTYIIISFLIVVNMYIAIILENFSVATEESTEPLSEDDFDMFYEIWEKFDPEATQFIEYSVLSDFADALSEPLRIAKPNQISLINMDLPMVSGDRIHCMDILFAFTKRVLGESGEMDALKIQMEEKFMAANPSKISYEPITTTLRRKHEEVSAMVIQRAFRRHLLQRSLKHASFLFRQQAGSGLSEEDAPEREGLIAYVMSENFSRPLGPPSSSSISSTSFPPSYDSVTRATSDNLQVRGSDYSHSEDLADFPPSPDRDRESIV

CCOc1ccccc1OC[C@@H]1CN(C(=O)OC(OC(=O)[C@H](N)C(C)C)C(C)C)CCO1 (some centres unmarked) [COMPOUND C]
stability in the mouse plasma [1]: instability | Kb [2]: 2 µM | IC50 [2]: 13 µM | % Remaining ([3]; 0 min): 100% | Analyte Peak area/IS Peak area Mean × 100 (n = 2) ([3]; 0 min): 10.6 | % Remaining ([3]; 5 min): 7.7% | Analyte Peak area/IS Peak area Mean × 100 (n = 2) ([3]; 5 min): 0.808 | % Remaining ([3]; 10 min): 4.2% | Analyte Peak area/IS Peak area Mean × 100 (n = 2) ([3]; 10 min): 0.446 | % Remaining ([3]; 20 min): 2.8% | Analyte Peak area/IS Peak area Mean × 100 (n = 2) ([3]; 20 min): 0.297 | % Remaining ([3]; 30 min): 1.5% | Analyte Peak area/IS Peak area Mean × 100 (n = 2) ([3]; 30 min): 0.160 | % Remaining ([3]; 60 min): 0.19% and 0.2% | Analyte Peak area/IS Peak area Mean × 100 (n = 2) ([3]; 60 min): 0.020 | % Remaining ([3]; NCF60 (no cofactors, 60 min)): 0.6% | Analyte Peak area/IS Peak area Mean × 100 (n = 2) ([3]; NCF60 (no cofactors, 60 min)): 0.061 | half-life at 1 μM [3]: 8.12 min | microsomal CLint at 1 μM [3]: 171 µL/min/mg | IC50 [4, 7]: > 100 µM | IC50 [4, 8]: 8.5 µM | half-life at 1 μM [5]: 12 min | microsomal CLint at 1 μM [5]: 115 µL/min/mg | % Remaining ([5]; 0 min): 100% | Analyte Peak area/IS Peak area Mean × 100 (n = 2) ([5]; 0 min): 8.27 | % Remaining ([5]; 5 min): 17% | Analyte Peak area/IS Peak area Mean × 100 (n = 2) ([5]; 5 min): 1.44 | % Remaining ([5]; 10 min): 12% | Analyte Peak area/IS Peak area Mean × 100 (n = 2) ([5]; 10 min): 0.962 | % Remaining ([5]; 20 min): 8.7% | Analyte Peak area/IS Peak area Mean × 100 (n = 2) ([5]; 20 min): 0.720 | % Remaining ([5]; 30 min): 6.1% | Analyte Peak area/IS Peak area Mean × 100 (n = 2) ([5]; 30 min): 0.501 | % Remaining ([5]; 60 min): 1.41% and 1.4% | Analyte Peak area/IS Peak area Mean × 100 (n = 2) ([5]; 60 min): 0.116 | % Remaining ([5]; NCF60 (no cofactors, 60 min)): 5.1% | Analyte Peak area/IS Peak area Mean × 100 (n = 2) ([5]; NCF60 (no cofactors, 60 min)): 0.418 | stability in mouse brain homogenate ([6]; 2 μM): unstable | % Unbound Experimental ([6]; mouse brain homogenate, 2 μM, 4 hr): 20.9% | Analyte Peak area/IS Peak area CD (brain homogenate side) [6, 9]: 0.002 and 0.003 | Analyte Peak area/IS Peak area CR (buffer side) [6, 9]: 0.001 | Analyte Peak area/IS Peak area Co (time zero) ([6]; mouse brain homogenate, 2 μM): 0.036 and 0.037 and 0.041

CCOc1ccccc1OC[C@@H]1CN(C(=O)OC(C)OC(=O)[C@@H](N)C(C)C)CCO1 (some centres unmarked) [COMPOUND A]
stability in the mouse plasma [1]: instability | Kb [2]: 1 µM | IC50 [2]: 6.9 µM | % Remaining ([3]; 0 min): 100% | Analyte Peak area/IS Peak area Mean × 100 (n = 2) ([3]; 0 min): 11.7 | % Remaining ([3]; 5 min): 1.4% | Analyte Peak area/IS Peak area Mean × 100 (n = 2) ([3]; 5 min): 0.164 | % Remaining ([3]; 10 min): 1.2% | Analyte Peak area/IS Peak area Mean × 100 (n = 2) ([3]; 10 min): 0.143 | % Remaining ([3]; 20 min): 0.3% | Analyte Peak area/IS Peak area Mean × 100 (n = 2) ([3]; 20 min): 0.039 | % Remaining ([3]; 30 min): 0.2% | Analyte Peak area/IS Peak area Mean × 100 (n = 2) ([3]; 30 min): 0.021 | % Remaining ([3]; 60 min): 0.01% and 0.0% | Analyte Peak area/IS Peak area Mean × 100 (n = 2) ([3]; 60 min): 0.001 | % Remaining ([3]; NCF60 (no cofactors, 60 min)): 0.1% | Analyte Peak area/IS Peak area Mean × 100 (n = 2) ([3]; NCF60 (no cofactors, 60 min)): 0.008 | half-life at 1 μM [3]: 5.76 min | microsomal CLint at 1 μM [3]: 241 µL/min/mg | IC50 [4, 7]: > 100 µM | IC50 [4, 8]: 19.6 µM | half-life at 1 μM [5]: 11 min | microsomal CLint at 1 μM [5]: 126 µL/min/mg | % Remaining ([5]; 0 min): 100% | Analyte Peak area/IS Peak area Mean × 100 (n = 2) ([5]; 0 min): 12.2 | % Remaining ([5]; 5 min): 8.0% | Analyte Peak area/IS Peak area Mean × 100 (n = 2) ([5]; 5 min): 0.98 | % Remaining ([5]; 10 min): 8.8% | Analyte Peak area/IS Peak area Mean × 100 (n = 2) ([5]; 10 min): 1.078 | % Remaining ([5]; 20 min): 5.2% | Analyte Peak area/IS Peak area Mean × 100 (n = 2) ([5]; 20 min): 0.635 | % Remaining ([5]; 30 min): 3.1% | Analyte Peak area/IS Peak area Mean × 100 (n = 2) ([5]; 30 min): 0.381 | % Remaining ([5]; 60 min): 0.8% | Analyte Peak area/IS Peak area Mean × 100 (n = 2) ([5]; 60 min): 0.097 | % Remaining ([5]; NCF60 (no cofactors, 60 min)): 2.0% | Analyte Peak area/IS Peak area Mean × 100 (n = 2) ([5]; NCF60 (no cofactors, 60 min)): 0.248 | stability in mouse brain homogenate ([6]; 2 μM): unstable | Analyte Peak area/IS Peak area CR (buffer side) [6, 9]: 0.0003 and 0.0002 | Analyte Peak area/IS Peak area Co (time zero) ([6]; mouse brain homogenate, 2 μM): 0.010 and 0.012 | % remaining after 1 hr ([6]; mouse brain homogenate, 1 hr (data not shown)): ^dCan't be determined due to instability of test article, which has 1.3% remaining after 1 hr (data not shown).
